Measured values: patent US20090076062A1, “Organic Compounds” (priority 2007, published 2009)

Target: T1, Recombinant human renin (Homo sapiens, UniProt P00797)
T1 construct: made in house; host or cells: Chinese Hamster Ovary cells
T1 sequence (P00797 67-406): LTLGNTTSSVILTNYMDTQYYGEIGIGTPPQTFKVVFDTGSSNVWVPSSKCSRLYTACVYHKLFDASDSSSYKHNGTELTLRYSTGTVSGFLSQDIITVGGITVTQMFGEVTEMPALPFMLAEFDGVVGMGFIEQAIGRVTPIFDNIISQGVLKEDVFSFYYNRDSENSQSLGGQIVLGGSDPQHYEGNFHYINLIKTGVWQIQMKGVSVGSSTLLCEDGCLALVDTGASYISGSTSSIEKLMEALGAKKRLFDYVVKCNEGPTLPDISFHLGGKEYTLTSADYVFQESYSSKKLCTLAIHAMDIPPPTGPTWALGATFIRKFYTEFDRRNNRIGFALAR
Assay: Renin inhibitory activity in vitro, hu-renin FRET assay
Type: biochemical
Description: Recombinant human renin (expressed in Chinese Hamster Ovary cells and purified using standard methods) at 4 nM concentration is incubated with test compound at various concentrations for 1 h at RT in 0.1 M Tris-HCl buffer, pH 7.4, containing 0.05 M NaCl, 0.5 mM EDTA and 0.05% CHAPS. Synthetic peptide substrate Arg-Glu(EDANS)-Ile-His-Pro-Phe-His-Leu-Val-Ile_His_Thr-Lys(DABCYL)-Arg9 is added to a final concentration of 2 μM and increase in fluorescence is recorded at an excitation wave-length of 340 nm and at an emission wave-length of 485 nm in a microplate spectro-fluorimeter. IC50 values are calculated from percentage of inhibition of renin activity as a function of test compound concentration (Fluorescence Resonance Energy Transfer, FRET, assay). Recombinant human renin (expressed in Chinese Hamster Ovary cells and purified using standard methods) at 1 nM concentration is incubated with test compound at various concentrations for 1.5 h at 37° C. in 0.1 M Tris/HCl pH 7.4 containing 0.05 M NaCl, 0.5 mM EDTA and 0.025% (w/v) CHAPS. Synthetic peptide substrate Ac-Ile-His-Pro-Phe-His-Leu-Val-Ile-His-Asn-Lys-[DY-505-X5] is added to a final concentration of 5 μM. The enzyme reaction is stopped by adding 6 μL of 1.0% TFA. The product of the reaction is separated by HPLC and quantified by spectrophotometric measurement at […] wave-length. IC50 values are calculated from percentage of inhibition of renin activity as a function of test compound concentration.
Renin inhibitory activity was assessed in vitro by FRET assay (as above described). Results for representative compounds of formula I are: […]

| Structure (SMILES) | IC50 [nM] |
| --- | --- |
| COCCCOc1cc(C[C@@H](C[C@H](N)[C@@H](O)C[C@H](C(=O)NCC2CCCCO2)C(C)C)C(C)C)ccc1OC (single isomer, unassigned) [Example 19, (2S,4S,5S,7S)-5-Amino-4-hydroxy-2-isopropyl-7-[4-methoxy-3-(3-methoxy-propoxy)-benzyl]-8-methyl-nonanoic acid [2(R) or 2(S)-1-(tetrahydro-pyran-2-yl)methyl]-amide] | 8 |
| COCCCOc1cc(C[C@@H](C[C@H](N)[C@@H](O)C[C@H](C(=O)NCC2CCCCO2)C(C)C)C(C)C)ccc1OC (single isomer, unassigned) [Example 20, (2S,4S,5S,7S)-5-Amino-4-hydroxy-2-isopropyl-7-[4-methoxy-3-(3-methoxy-propoxy)-benzyl]-8-methyl-nonanoic acid [(R)- or (S)-1-(tetrahydro-pyran-2-yl)methyl]-amide] | 7 |
| COCCCOc1cc(C[C@@H](C[C@H](N)[C@@H](O)C[C@H](C(=O)NC2CCCOC2)C(C)C)C(C)C)ccc1OC (single isomer, unassigned) [Example 22, (2S,4S,5S,7S)-5-Amino-4-hydroxy-2-isopropyl-7-[4-methoxy-3-(3-methoxy-propoxy)-benzyl]-8-methyl-nonanoic acid [(R)- or (S)-3-(tetrahydro-pyran-3-yl)]-amide] | 2.5 |
| COCCCOc1cc(C[C@@H](C[C@H](N)[C@@H](O)C[C@H](C(=O)NCC2CCOC2)C(C)C)C(C)C)ccc1OC (single isomer, unassigned) [Example 30, (2S,4S,5S,7S)-5-Amino-4-hydroxy-2-isopropyl-7-[4-methoxy-3-(3-methoxy-propoxy)-benzyl]-8-methyl-nonanoic acid [(R) or (S)-1-(tetrahydro-furan-3-yl)methyl]-amide] | 0.8 |
| COCCCOc1cc(C[C@@H](C[C@H](N)[C@@H](O)C[C@H](C(=O)NC2CCOCC2)C(C)C)C(C)C)ccc1OC [Example 1, (2S,4S,5S,7S)-5-Amino-4-hydroxy-2-isopropyl-7-[4-methoxy-3-(3-methoxy-propoxy)-benzyl]-8-methyl-nonanoic acid (tetrahydro-pyran-4-yl)-amide] | 1.4 |
| COCCCOc1cc(C[C@@H](C[C@H](N)[C@@H](O)C[C@H](C(=O)N[C@@H]2CCN(C)C2)C(C)C)C(C)C)ccc1OC [Example 2, (2S,4S,5S,7S)-5-Amino-4-hydroxy-2-isopropyl-7-[4-methoxy-3-(3-methoxy-propoxy)-benzyl]-8-methyl-nonanoic acid ((R)-1-methyl-pyrrolidin-3-yl)-amide] | 4 |
| COCCCOc1cc(C[C@@H](C[C@H](N)[C@@H](O)C[C@H](C(=O)NC2CCN(C)CC2)C(C)C)C(C)C)ccc1OC [Example 5, (2S,4S,5S,7S)-5-Amino-4-hydroxy-2-isopropyl-7-[4-methoxy-3-(3-methoxy-propoxy)-benzyl]-8-methyl-nonanoic acid (1-methyl-piperidin-4-yl)-amide] | 3.2 |
| COCCCOc1cc(C[C@@H](C[C@H](N)[C@@H](O)C[C@H](C(=O)NC[C@@H]2CCCO2)C(C)C)C(C)C)ccc1OC [Example 10, (2S,4S,5S,7S)-5-Amino-4-hydroxy-2-isopropyl-7-[4-methoxy-3-(3-methoxy-propoxy)-benzyl]-8-methyl-nonanoic acid [(S)-1-(tetrahydro-furan-2-yl)methyl]-amide] | 3.5 |
| COCCCOc1cc(C[C@@H](C[C@H](N)[C@@H](O)C[C@H](C(=O)NC[C@H]2CCCO2)C(C)C)C(C)C)ccc1OC [Example 11, (2S,4S,5S,7S)-5-Amino-4-hydroxy-2-isopropyl-7-[4-methoxy-3-(3-methoxy-propoxy)-benzyl]-8-methyl-nonanoic acid [(R)-1-(tetrahydro-furan-2-yl)methyl]-amide] | 4 |
| COCCCOc1cc(C[C@@H](C[C@H](N)[C@@H](O)C[C@H](C(=O)NCC2CCOCC2)C(C)C)C(C)C)ccc1OC [Example 14, (2S,4S,5S,7S)-5-Amino-4-hydroxy-2-isopropyl-7-[4-methoxy-3-(3-methoxy-propoxy)-benzyl]-8-methyl-nonanoic acid (tetrahydro-pyran-4-ylmethyl)-amide] | 1.4 |
| COCCCOc1cc(C[C@@H](C[C@H](N)[C@@H](O)C[C@H](C(=O)NCc2ccoc2)C(C)C)C(C)C)ccc1OC [Example 17, (2S,4S,5S,7S)-5-Amino-4-hydroxy-2-isopropyl-7-[4-methoxy-3-(3-methoxy-propoxy)-benzyl]-8-methyl-nonanoic acid (furan-3-ylmethyl)-amide] | 2.5 |
| COCCCOc1cc(C[C@@H](C[C@H](N)[C@@H](O)C[C@H](C(=O)NCc2ccco2)C(C)C)C(C)C)ccc1OC [Example 18, (2S,4S,5S,7S)-5-Amino-4-hydroxy-2-isopropyl-7-[4-methoxy-3-(3-methoxy-propoxy)-benzyl]-8-methyl-nonanoic acid (furan-2-ylmethyl)-amide] | 0.9 |

These reach a lower IC50. Values come first.

| IC50 [nM] | Structure (SMILES) |
| --- | --- |
| 0.5 | COCCCOc1cc(C[C@@H](C[C@H](N)[C@@H](O)C[C@H](C(=O)NC2CCCOC2)C(C)C)C(C)C)ccc1OC (single isomer, unassigned) [Example 23, (2S,4S,5S,7S)-5-Amino-4-hydroxy-2-isopropyl-7-[4-methoxy-3-(3-methoxy-propoxy)-benzyl]-8-methyl-nonanoic acid [(R)- or (S)-3-(tetrahydro-pyran-3-yl)]-amide] |
| 0.4 | COCCCOc1cc(C[C@@H](C[C@H](N)[C@@H](O)C[C@H](C(=O)NCC2CCOC2)C(C)C)C(C)C)ccc1OC (single isomer, unassigned) [Example 29, (2S,4S,5S,7S)-5-Amino-4-hydroxy-2-isopropyl-7-[4-methoxy-3-(3-methoxy-propoxy)-benzyl]-8-methyl-nonanoic acid [3(R) or 3(S)-1-(tetrahydro-furan-3-yl)methyl]-amide] |
| 0.7 | COCCCOc1cc(C[C@@H](C[C@H](N)[C@@H](O)C[C@H](C(=O)N[C@H]2CCN(C)C2)C(C)C)C(C)C)ccc1OC [Example 3, (2S,4S,5S,7S)-5-Amino-4-hydroxy-2-isopropyl-7-[4-methoxy-3-(3-methoxy-propoxy)-benzyl]-8-methyl-nonanoic acid ((S)-1-methyl-pyrrolidin-3-yl)-amide] |
| 0.7 | COCCCOc1cc(C[C@@H](C[C@H](N)[C@@H](O)C[C@H](C(=O)N[C@@H]2CCOC2)C(C)C)C(C)C)ccc1OC [Example 12, (2S,4S,5S,7S)-5-Amino-4-hydroxy-2-isopropyl-7-[4-methoxy-3-(3-methoxy-propoxy)-benzyl]-8-methyl-nonanoic acid ((R)-tetrahydrofuran-3-yl)-amide] |
| 0.2 | COCCCOc1cc(C[C@@H](C[C@H](N)[C@@H](O)C[C@H](C(=O)N[C@H]2CCOC2)C(C)C)C(C)C)ccc1OC [Example 13, (2S,4S,5S,7S)-5-Amino-4-hydroxy-2-isopropyl-7-[4-methoxy-3-(3-methoxy-propoxy)-benzyl]-8-methyl-nonanoic acid ((S)-tetrahydrofuran-3-yl)-amide] |
| 0.5 | COCCCOc1cc(C[C@@H](C[C@H](N)[C@@H](O)C[C@H](C(=O)NC2CCOCC2)C(C)C)C(C)C)ccc1C [Example 26, (2S,4S,5S,7S)-5-Amino-4-hydroxy-2-isopropyl-7-[3-(3-methoxy-propoxy)-4-methyl-benzyl]-8-methyl-nonanoic acid (tetrahydro-pyran-4-yl)-amide] |
| 0.5 | COCCCOc1cc(C[C@@H](C[C@H](N)[C@@H](O)C[C@H](C(=O)NC[C@H]2CCCO2)C(C)C)C(C)C)ccc1C [Example 27, (2S,4S,5S,7S)-5-Amino-4-hydroxy-2-isopropyl-7-[3-(3-methoxy-propoxy)-4-methyl-benzyl]-8-methyl-nonanoic acid [(R)-1-(tetrahydro-furan-2-yl)methyl]-amide] |
| 0.6 | COCCCOc1cc(C[C@@H](C[C@H](N)[C@@H](O)C[C@H](C(=O)NC[C@@H]2CCCO2)C(C)C)C(C)C)ccc1C [Example 28, (2S,4S,5S,7S)-5-Amino-4-hydroxy-2-isopropyl-7-[3-(3-methoxy-propoxy)-4-methyl-benzyl]-8-methyl-nonanoic acid [(S)-1-(tetrahydro-furan-2-yl)methyl]-amide] |
| 0.3 | COCCCCc1cc(C[C@@H](C[C@H](N)[C@@H](O)C[C@H](C(=O)NC2CCOCC2)C(C)C)C(C)C)ccc1OC [Example 36, (2S,4S,5S,7S)-5-Amino-4-hydroxy-2-isopropyl-7-[4-methoxy-3-(4-methoxy-butyl)-benzyl]-8-methyl-nonanoic acid (tetrahydro-pyran-4-yl)-amide] |
